Laboratory results: ChEMBL document CHEMBL5143638, “Natural aloe emodin-hybridized sulfonamide aminophosphates as novel potential membrane-perturbing and DNA-intercalating agents against Enterococcus faecalis” (Bioorg Med Chem Lett, 2022)
≈ marks a conversion by molar mass, not a printed value.

What was measured:
Assay type in all cases: functional
Pseudomonas aeruginosa [1] = test: Antibacterial activity against Pseudomonas aeruginosa ATCC 27853 assessed as inhibition of bacterial growth measured after 24 hrs by CLSI based broth microdilution method
Staphylococcus aureus [2] = test: Antibacterial activity against Staphylococcus aureus assessed as inhibition of bacterial growth measured after 24 hrs by CLSI based broth microdilution method
Staphylococcus aureus [3] = test: Antibacterial activity against Staphylococcus aureus ATCC 25923 assessed as inhibition of bacterial growth measured after 24 hrs by CLSI based broth microdilution method
Escherichia coli [4] = test: Antibacterial activity against Escherichia coli ATCC 25922 assessed as inhibition of bacterial growth measured after 24 hrs by CLSI based broth microdilution method
Escherichia coli [5] = test: Antibacterial activity against Escherichia coli assessed as inhibition of bacterial growth measured after 24 hrs by CLSI based broth microdilution method
Klebsiella pneumoniae [6] = test: Antibacterial activity against Klebsiella pneumoniae assessed as inhibition of bacterial growth measured after 24 hrs by CLSI based broth microdilution method
Acinetobacter baumannii = test: Antibacterial activity against Acinetobacter baumannii assessed as inhibition of bacterial growth measured after 24 hrs by CLSI based broth microdilution method
Pseudomonas aeruginosa [7] = test: Antibacterial activity against Pseudomonas aeruginosa assessed as inhibition of bacterial growth measured after 24 hrs by CLSI based broth microdilution method
Staphylococcus aureus [8] = test: Antibacterial activity against methicillin-resistant Staphylococcus aureus N315 assessed as inhibition of bacterial growth measured after 24 hrs by CLSI based broth microdilution method
Enterococcus faecalis = test: Antibacterial activity against Enterococcus faecalis assessed as inhibition of bacterial growth measured after 24 hrs by CLSI based broth microdilution method
Staphylococcus aureus [9] = test: Potency index, ratio of sulfamethoxazole MIC to test compound MIC for antibacterial activity against Staphylococcus aureus ATCC 25923 assessed as inhibition of bacterial growth measured after 24 hrs by CLSI based broth microdilution method
Klebsiella pneumoniae [10] = test: Potency index, ratio of aloe emodin MIC to test compound MIC for antibacterial activity against Klebsiella pneumoniae assessed as inhibition of bacterial growth measured after 24 hrs by CLSI based broth microdilution method
Staphylococcus aureus [11] = test: Potency index, ratio of sulfamethoxazole MIC to test compound MIC for antibacterial activity against Staphylococcus aureus assessed as inhibition of bacterial growth measured after 24 hrs by CLSI based broth microdilution method
Klebsiella pneumoniae [12] = test: Potency index, ratio of norfloxacin MIC to test compound MIC for antibacterial activity against Klebsiella pneumoniae assessed as inhibition of bacterial growth measured after 24 hrs by CLSI based broth microdilution method
Klebsiella pneumoniae [13] = test: Potency index, ratio of sulfamethoxazole MIC to test compound MIC for antibacterial activity against Klebsiella pneumoniae assessed as inhibition of bacterial growth measured after 24 hrs by CLSI based broth microdilution method

Compound | MIC (Pseudomonas aeruginosa [1]) [µg/mL] | MIC (Staphylococcus aureus [2]) [µg/mL] | MIC (Staphylococcus aureus [3]) [µg/mL] | MIC (Escherichia coli [4]) [µg/mL] | MIC (Escherichia coli [5]) [µg/mL] | MIC (Klebsiella pneumoniae [6]) [µg/mL] | MIC (Acinetobacter baumannii) [µg/mL] | MIC (Pseudomonas aeruginosa [7]) [µg/mL] | MIC (Staphylococcus aureus [8]) [µg/mL] | MIC (Enterococcus faecalis) [µg/mL] | Ratio (Staphylococcus aureus [9]) | Ratio (Klebsiella pneumoniae [10]) | Ratio (Staphylococcus aureus [11]) | Ratio (Klebsiella pneumoniae [12]) | Ratio (Klebsiella pneumoniae [13])
COP(=O)(OC)C(Nc1ccc(S(=O)(=O)Nc2onc(C)c2C)cc1)c1cc(O)c2c(c1)C(=O)c1cccc(O)c1C2=O (stereo not given) | 256 (≈ 408 µM) | 2 (≈ 3.19 µM) | 8 (≈ 12.7 µM) | 0.5 (≈ 0.797 µM) | 128 (≈ 204 µM) | 32 (≈ 51 µM) | 4 (≈ 6.37 µM) | 8 (≈ 12.7 µM) | 2 (≈ 3.19 µM) | 64 (≈ 102 µM) | – | – | – | – | –
Cc1cc(NS(=O)(=O)c2ccc(NC(c3cc(O)c4c(c3)C(=O)c3cccc(O)c3C4=O)P(=O)(Oc3ccccc3)Oc3ccccc3)cc2)no1 (stereo not given) | 256 (≈ 347 µM) | 64 (≈ 86.8 µM) | 256 (≈ 347 µM) | 32 (≈ 43.4 µM) | 64 (≈ 86.8 µM) | 128 (≈ 174 µM) | 64 (≈ 86.8 µM) | 64 (≈ 86.8 µM) | 64 (≈ 86.8 µM) | 64 (≈ 86.8 µM) | – | – | – | – | –
Cc1noc(NS(=O)(=O)c2ccc(NC(c3cc(O)c4c(c3)C(=O)c3cccc(O)c3C4=O)P(=O)(OC(C)C)OC(C)C)cc2)c1C (stereo not given) | 256 (≈ 374 µM) | 2 (≈ 2.93 µM) | 2 (≈ 2.93 µM) | 0.5 (≈ 0.731 µM) | 64 (≈ 93.6 µM) | 2 (≈ 2.93 µM) | 2 (≈ 2.93 µM) | 2 (≈ 2.93 µM) | 0.25 (≈ 0.366 µM) | 64 (≈ 93.6 µM) | – | – | – | – | –
CCCCOP(=O)(OCCCC)C(Nc1ccc(S(=O)(=O)Nc2cc(C)on2)cc1)c1cc(O)c2c(c1)C(=O)c1cccc(O)c1C2=O (stereo not given) | 64 (≈ 91.7 µM) | 128 (≈ 183 µM) | 128 (≈ 183 µM) | 64 (≈ 91.7 µM) | 128 (≈ 183 µM) | 256 (≈ 367 µM) | 64 (≈ 91.7 µM) | 64 (≈ 91.7 µM) | 16 (≈ 22.9 µM) | 256 (≈ 367 µM) | – | – | – | – | –
COP(=O)(OC)C(Nc1ccc(S(N)(=O)=O)cc1)c1cc(O)c2c(c1)C(=O)c1cccc(O)c1C2=O (stereo not given) | 32 (≈ 60.1 µM) | 32 (≈ 60.1 µM) | 128 (≈ 240 µM) | 8 (≈ 15 µM) | 2 (≈ 3.76 µM) | 128 (≈ 240 µM) | 0.5 (≈ 0.939 µM) | 64 (≈ 120 µM) | 16 (≈ 30 µM) | 0.25 (≈ 0.47 µM) | – | – | – | – | –
CCOP(=O)(OCC)C(Nc1ccc(S(=O)(=O)Nc2nccs2)cc1)c1cc(O)c2c(c1)C(=O)c1cccc(O)c1C2=O (stereo not given) | 128 (≈ 199 µM) | 16 (≈ 24.9 µM) | 256 (≈ 398 µM) | 256 (≈ 398 µM) | 256 (≈ 398 µM) | 256 (≈ 398 µM) | 64 (≈ 99.4 µM) | 256 (≈ 398 µM) | 256 (≈ 398 µM) | 0.5 (≈ 0.777 µM) | – | – | – | – | –
CC(C)OP(=O)(OC(C)C)C(Nc1ccc(S(=O)(=O)Nc2nccs2)cc1)c1cc(O)c2c(c1)C(=O)c1cccc(O)c1C2=O (stereo not given) | 128 (≈ 191 µM) | 256 (≈ 381 µM) | 32 (≈ 47.6 µM) | 128 (≈ 191 µM) | 256 (≈ 381 µM) | 256 (≈ 381 µM) | 256 (≈ 381 µM) | 256 (≈ 381 µM) | 256 (≈ 381 µM) | 256 (≈ 381 µM) | – | – | – | – | –
CCCCOP(=O)(OCCCC)C(Nc1ccc(S(=O)(=O)Nc2nccs2)cc1)c1cc(O)c2c(c1)C(=O)c1cccc(O)c1C2=O (stereo not given) | 256 (≈ 366 µM) | 256 (≈ 366 µM) | 256 (≈ 366 µM) | 256 (≈ 366 µM) | 256 (≈ 366 µM) | 256 (≈ 366 µM) | 256 (≈ 366 µM) | 256 (≈ 366 µM) | 256 (≈ 366 µM) | 256 (≈ 366 µM) | – | – | – | – | –
Nc1ccc(S(N)(=O)=O)cc1 [SULFANILAMIDE] | 2 (≈ 11.6 µM) | 128 (≈ 743 µM) | 256 (≈ 1490 µM) | 4 (≈ 23.2 µM) | 64 (≈ 372 µM) | 8 (≈ 46.5 µM) | 4 (≈ 23.2 µM) | 4 (≈ 23.2 µM) | 256 (≈ 1490 µM) | 128 (≈ 743 µM) | – | – | – | – | –
CCOP(=O)(OCC)C(Nc1ccc(S(=O)(=O)Nc2cc(C)on2)cc1)c1cc(O)c2c(c1)C(=O)c1cccc(O)c1C2=O (stereo not given) | 32 (≈ 49.9 µM) | 0.5 (≈ 0.779 µM) | 0.5 (≈ 0.779 µM) | 32 (≈ 49.9 µM) | 64 (≈ 99.8 µM) | 2 (≈ 3.12 µM) | 64 (≈ 99.8 µM) | 32 (≈ 49.9 µM) | 64 (≈ 99.8 µM) | 256 (≈ 399 µM) | 64 | 32 | 16 | 2 | 4
CCn1cc(C(=O)O)c(=O)c2cc(F)c(N3CCNCC3)cc21 [NORFLOXACIN] | 2 (≈ 6.26 µM) | 8 (≈ 25.1 µM) | 4 (≈ 12.5 µM) | 4 (≈ 12.5 µM) | 8 (≈ 25.1 µM) | 4 (≈ 12.5 µM) | 8 (≈ 25.1 µM) | 2 (≈ 6.26 µM) | 8 (≈ 25.1 µM) | 4 (≈ 12.5 µM) | – | – | – | – | –
Cc1cc(NS(=O)(=O)c2ccc(NC(c3cc(O)c4c(c3)C(=O)c3cccc(O)c3C4=O)P(=O)(OC(C)C)OC(C)C)cc2)no1 (stereo not given) | 8 (≈ 11.9 µM) | 128 (≈ 191 µM) | 256 (≈ 382 µM) | 64 (≈ 95.6 µM) | 64 (≈ 95.6 µM) | 256 (≈ 382 µM) | 0.5 (≈ 0.747 µM) | 32 (≈ 47.8 µM) | 128 (≈ 191 µM) | 32 (≈ 47.8 µM) | – | – | – | – | –
